Assay results from article PMC11695783 (Frontiers in Pharmacology, 2024).
Several values for one entry are separate records, joined by “and”; a condition that tells them apart may be missing. Equal entries are not always repeated.

Columns and labels:
Type in all cases: in vivo, BALB/c mice
[1] = system: inflammatory cells in BALF (neutrophils, macrophages, lymphocytes); assay: Inflammatory cell analysis in BALF of M. pneumoniae-infected mice
Experimental: (§1) Adult BALB/c mice (20–22 g) were divided into a control group, a positive group, and compound 16C groups at low (20 mg/kg), medium (40 mg/kg), and high-dose (80 mg/kg) levels and oral and intramuscular tiamulin treatment groups (40 mg/kg). We formulated the above dose range based on the dose at which tiamulin was approved for injection (10–20 mg/kg) and the dose previously reported (45 mg/kg) ([EMA, 1999]; [Xiao et al., 2016]). In summary, we selected similar doses for compound 16C in vivo study. 40 mg/kg was used as an intermediate value, one-half of it as a low dose, and two times of it as a high dose. To prepare the challenge solution, logarithmic phase culture suspensions were centrifuged at 1700 g for 10 min, and the pellets were suspended in sterile PBS to obtain 1 × 10^9 CFU/mL. Before the challenge, mice were anesthetized with tribromoethanol (250 mg/kg, IP). Mice in the control groups were intratracheally inoculated with sterile PBS, whereas mice in the other groups were intratracheally challenged with 50 μL (1 × 10^9 CFU/mL) M. pneumoniae suspension once a day for 3 days. Compound 16C and tiamulin (tiamulin-IM group) dissolved using the method mentioned in pharmacokinetic studies, and the tiamulin fumarate soluble powder was dissolved in ddH2O for oral administration. After the final challenge, antibiotics were administered at low, medium, and high-dose levels (see above) at 10 a.m. and 10 p.m. daily for 4 consecutive days. Normal saline containing 5% DMSO and 5% Tween-80 was administered as control and positive groups by thigh intramuscular injection. To compare the efficacy of compound 16C and tiamulin under the same route of administration, we used the original tiamulin for intramuscular administration in the same formulation. On the other hand, tiamulin fumarate soluble powder, approved for oral administration to treat animal mycoplasma diseases in China, was administered to mice by gavage. Based on a clinical study of lefamulin in community-acquired bacterial pneumonia (CABP), subjects were administered twice a day and the 96 ± 24 h of starting treatment was an essential point for early clinical response (ECR) ([Paukner et al., 2022]). We therefore stopped treatment at 96 h and sampled at 192 h to explore whether the disease worsened after cessation of treatment. Bronchoalveolar lavage fluid (BALF) and lungs were collected at 0, 96, 192 h (Samples of 0 h were collected before starting treatment, and mice were fed ad libitum without drug treatment during 96–192 h) after the first dose, BALF for cytokine and cytological analysis and lung for histopathological evaluation.
(§2) Bronchoalveolar lavage was performed according to a standardized method ([Van Hoecke et al., 2017]). BALF was obtained following infusion of 0.5 mL PBS via tracheal cannulation into the lung twice (total 1 mL), and 200 µL was used for mycoplasma counts. The remaining BALF was centrifuged at 300 g for 10 min to separate the debris. The supernatants were stored at −80°C, and the debris was resuspended in the same volume of PBS containing red blood cell lysis buffer. A hemocytometer was used to count total cell numbers in BALF, and cell smears (Diff-Quik staining) were prepared to calculate the percentages of neutrophils, macrophages, and lymphocytes. IFN-γ, TNF-α, and CXCL1 levels in BALF samples were assessed using commercial ELISA kits using guidelines recommended by the manufacturer (Elabscience, Wuhan, China). Parallel data for each experimental group at each time point were obtained from six different mice.

IFN-γ = IFN-γ in BALF of M. pneumoniae-infected mice (ELISA); conditions: for IFN-γ in BALF (AV): group AV; for IFN-γ in BALF: individual mice
Experimental: as §1, §2

CXCL1 = CXCL1 in BALF of M. pneumoniae-infected mice (ELISA); conditions: for CXCL1 in BALF (AV): group AV; for CXCL1 in BALF: individual mice
Experimental: as §1, §2

[2] = compound 16C 20 mg/kg IM, 192 h
[3] = compound 16C 40 mg/kg IM, 192 h
[4] = compound 16C 80 mg/kg IM, 192 h

Compound: C=CC1(C)CC(OC(=O)CSc2ccc(NC(=O)Cc3ccc([N+](=O)[O-])cc3)cc2)C2(C)C(C)CCC3(CCC(=O)C32)C(C)C1O (stereo not drawn) [compound 16C, 22–((4-((4-nitrophenyl)acetamido)phenyl)thio)deoxypleuromutilin]
- cell counts, 淋 (lymphocytes) (AV) ([1]; 40mg/kg, time 192): 1.009 n*10^5
- cell counts, total (AV) ([1]; 80mg/kg, time 0): 35.9167 n*10^5
- cell counts, 中 (neutrophils) (AV) ([1]; 80mg/kg, time 0): 31.0489 n*10^5
- cell counts, 巨 (macrophages) (AV) ([1]; 80mg/kg, time 0): 3.441 n*10^5
- cell counts, 淋 (lymphocytes) (AV) ([1]; 80mg/kg, time 0): 1.427 n*10^5
- cell counts, total (AV) ([1]; 80mg/kg, time 96): 2.675 n*10^5
- cell counts, 中 (neutrophils) (AV) ([1]; 80mg/kg, time 96): 0.2904 n*10^5
- cell counts, 巨 (macrophages) (AV) ([1]; 80mg/kg, time 96): 0.8707 n*10^5
- cell counts, 淋 (lymphocytes) (AV) ([1]; 80mg/kg, time 96): 1.514 n*10^5
- cell counts, total (AV) ([1]; 80mg/kg, time 192): 2.742 n*10^5
- cell counts, 中 (neutrophils) (AV) ([1]; 80mg/kg, time 192): 0.4795 n*10^5
- cell counts, 巨 (macrophages) (AV) ([1]; 80mg/kg, time 192): 1.166 n*10^5
- cell counts, 淋 (lymphocytes) (AV) ([1]; 80mg/kg, time 192): 1.096 n*10^5
- number of cells in BALF four days following treatment cessation ([1]; compound 16C 20, 40, and 80 mg/kg dose groups, 192 h, similar to control group (P> 0.05)): lower than that of the positive control
- total number of inflammatory cells in BALF compared with the positive controls ([1]; compound 16C low-dose (20 mg/kg IM), after 4 days of treatment (96 h)): not statistically significant
- IFN-γ in BALF (AV) (IFN-γ; compound 16C 20 mg/kg IM, 96 h): 61.9115 pg/mL
- IFN-γ in BALF (IFN-γ; compound 16C 20 mg/kg IM, 96 h): 66.1116 pg/mL and 70.7764 pg/mL and 60.3497 pg/mL and 48.4263 pg/mL and 63.8937 pg/mL
- IFN-γ in BALF (AV) (IFN-γ; [2]): 53.7268 pg/mL
- IFN-γ in BALF (IFN-γ; [2]): 69.6648 pg/mL and 70.9988 pg/mL and 47.7654 pg/mL and 32.8171 pg/mL and 65.2242 pg/mL and 35.8907 pg/mL
- IFN-γ in BALF (AV) (IFN-γ; compound 16C 40 mg/kg IM, 96 h): 31.4597 pg/mL
- IFN-γ in BALF (IFN-γ; compound 16C 40 mg/kg IM, 96 h): 36.9995 pg/mL and 36.109 pg/mL and 18.2065 pg/mL and 31.1186 pg/mL and 39.6709 pg/mL and 26.6536 pg/mL
- IFN-γ in BALF (AV) (IFN-γ; [3]): 43.7114 pg/mL
- IFN-γ in BALF (IFN-γ; [3]): 35.5746 pg/mL and 45.5493 pg/mL and 40.3832 pg/mL and 54.2951 pg/mL and 42.5204 pg/mL and 43.9456 pg/mL
- IFN-γ in BALF (AV) (IFN-γ; compound 16C 80 mg/kg IM, 96 h): 33.085 pg/mL
- IFN-γ in BALF (IFN-γ; compound 16C 80 mg/kg IM, 96 h): 42.8939 pg/mL and 46.612 pg/mL and 43.7193 pg/mL and 17.0898 pg/mL and 29.6102 pg/mL and 18.5846 pg/mL
- IFN-γ in BALF (AV) (IFN-γ; [4]): 30.1626 pg/mL
- IFN-γ in BALF (IFN-γ; [4]): 41.5193 pg/mL and 31.3845 pg/mL and 29.0646 pg/mL and 27.0198 pg/mL and 28.7918 pg/mL and 26.4748 pg/mL and 26.8835 pg/mL
- CXCL1 in BALF (AV) (CXCL1; compound 16C 20 mg/kg IM, 96 h): 48.0123 pg/mL
- CXCL1 in BALF (CXCL1; compound 16C 20 mg/kg IM, 96 h): 56.3478 pg/mL and 48.458 pg/mL and 47.2524 pg/mL and 45.2286 pg/mL and 42.7748 pg/mL
- CXCL1 in BALF (AV) (CXCL1; [2]): 38.192 pg/mL
- CXCL1 in BALF (CXCL1; [2]): 48.0568 pg/mL and 31.7563 pg/mL and 40.2912 pg/mL and 33.499 pg/mL and 37.352 pg/mL and 38.1966 pg/mL
- CXCL1 in BALF (AV) (CXCL1; compound 16C 40 mg/kg IM, 96 h): 22.7681 pg/mL
- CXCL1 in BALF (CXCL1; compound 16C 40 mg/kg IM, 96 h): 15.9622 pg/mL and 24.4156 pg/mL and 34.1197 pg/mL and 28.066 pg/mL and 17.0225 pg/mL
- CXCL1 in BALF (AV) (CXCL1; [3]): 28.9333 pg/mL
- CXCL1 in BALF (CXCL1; [3]): 23.476 pg/mL and 20.5799 pg/mL and 29.3957 pg/mL and 43.4026 pg/mL and 16.4951 pg/mL and 40.2505 pg/mL
- CXCL1 in BALF (AV) (CXCL1; compound 16C 80 mg/kg IM, 96 h): 24.5788 pg/mL
- CXCL1 in BALF (CXCL1; compound 16C 80 mg/kg IM, 96 h): 33.6631 pg/mL and 23.7534 pg/mL and 35.719 pg/mL and 18.1872 pg/mL and 17.5299 pg/mL and 18.6204 pg/mL
- CXCL1 in BALF (AV) (CXCL1; [4]): 39.611 pg/mL
- CXCL1 in BALF (CXCL1; [4]): 45.7844 pg/mL and 28.8637 pg/mL and 42.9442 pg/mL and 41.3398 pg/mL and 45.9405 pg/mL and 32.7936 pg/mL
